# Experimental data from US20180319810A1, “SUBSTITUTED BRIDGED UREA ANALOGS AS SIRTUIN MODULATORS” (GlaxoSmithKline Intellectual Property (No.2) Limited, priority 2014, published 2018).
# Biological target: T1, SIRT1 (Homo sapiens, UniProt Q96EB6)
# T1 sequence (Q96EB6 1-747): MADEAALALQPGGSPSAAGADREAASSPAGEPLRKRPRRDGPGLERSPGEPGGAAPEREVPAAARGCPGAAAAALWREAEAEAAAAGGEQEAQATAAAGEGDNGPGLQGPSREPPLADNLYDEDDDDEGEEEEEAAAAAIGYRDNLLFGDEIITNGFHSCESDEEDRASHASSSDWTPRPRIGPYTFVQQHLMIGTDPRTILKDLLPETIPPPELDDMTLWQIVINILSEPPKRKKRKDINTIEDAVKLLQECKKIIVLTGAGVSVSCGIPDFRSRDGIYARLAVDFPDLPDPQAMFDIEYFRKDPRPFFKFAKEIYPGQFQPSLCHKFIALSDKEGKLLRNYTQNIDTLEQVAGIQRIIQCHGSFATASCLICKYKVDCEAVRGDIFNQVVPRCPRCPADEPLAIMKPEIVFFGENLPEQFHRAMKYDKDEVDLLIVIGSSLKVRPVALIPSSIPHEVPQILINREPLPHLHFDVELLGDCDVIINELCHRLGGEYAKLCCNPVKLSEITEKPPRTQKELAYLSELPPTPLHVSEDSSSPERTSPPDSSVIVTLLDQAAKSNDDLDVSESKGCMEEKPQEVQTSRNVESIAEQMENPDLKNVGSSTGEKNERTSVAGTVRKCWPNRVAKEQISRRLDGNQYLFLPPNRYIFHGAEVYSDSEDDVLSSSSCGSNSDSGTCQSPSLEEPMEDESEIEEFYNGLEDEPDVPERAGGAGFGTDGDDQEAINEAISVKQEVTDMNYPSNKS
# Assay: Trp mass spectrometry assay of SIRT1 activation
# Type: biochemical
# Settings: Trp peptide Ac-R-H-K-K(Ac)-W-NH2 0.5 μM, 120 μM βNAD+, 10 nM SIRT1, 25 min, 25° C.
SMILES,"TRP Activity (EC1.5, concentration of compound required to increase SIRT1 activity by 50% over control)",TRP MAX RESP (percent maximum fold activation relative to control)
"Cc1nc(-c2cccc(C(F)(F)F)c2)nc2c1N1CCC[C@@H](C1)N2C(=O)Nc1ccc(OC[C@H](O)CO)cn1 [Example 113, (9S)—N-(5-((R)-2,3-dihydroxypropoxy)pyridin-2-yl)-4-methyl-2-(3-(trifluoromethyl)phenyl)-8,9-dihydro-6H-5,9-methanopyrimido[4,5-b][1,4]diazocine-10(7H)-carboxamide]",A (EC1.5<1 μM),A (Fold activation ≥150%)
"O=C(Nc1cccc(OC[C@@H](O)CO)n1)N1c2nc(-c3cccc(C(F)(F)F)c3)ncc2N2CCC[C@H]1C2 [Example 84, (9S)—N-(6-((S)-2,3-dihydroxypropoxy)pyridin-2-yl)-2-(3-(trifluoromethyl)phenyl)-8,9-dihydro-6H-5,9-methanopyrimido[4,5-b][1,4]diazocine-10(7H)-carboxamide]",A (EC1.5<1 μM),A (Fold activation ≥150%)
"O=C(Nc1ccccn1)N1c2nc(-c3cccc(C(F)(F)F)c3)ncc2N2CC[C@H]1C2 [Example 3, (8S)—N-(pyridin-2-yl)-2-(3-(trifluoromethyl)phenyl)-7,8-dihydro-5,8-methano pyrimido[4,5-b][1,4]diazepine-9(6H)-carboxamide]",–,A (Fold activation ≥150%)
"C[C@@H](NC(=O)c1ncc2c(n1)N(C(=O)Nc1cccc(OC[C@@H](O)CO)n1)[C@H]1CCCN2C1)C(F)(F)F [Example 117, (9S)—N10-(6-((S)-2,3-dihydroxypropoxy)pyridin-2-yl)-N2-((R)-1,1,1-trifluoropropan-2-yl)-8,9-dihydro-6H-5,9-methanopyrimido[4,5-b][1,4]diazocine-2,10(7H)-dicarboxamide]",B (EC1.5 1-25 μM),A (Fold activation ≥150%)
"O=C(Nc1ccc(OC[C@@H](O)CO)cn1)N1c2nc(-c3cccc(C(F)(F)F)c3)ncc2N2CC[C@H]1C2 [Example 42, (8S)—N-(5-((S)-2,3-dihydroxypropoxy)pyridin-2-yl)-2-(3-(trifluoromethyl)phenyl)-7,8-dihydro-5,8-methanopyrimido[4,5-b][1,4]diazepine-9(6H)-carboxamide]",B (EC1.5 1-25 μM),A (Fold activation ≥150%)
"O=C(NC1CCC1)N1c2nc(-c3cccc(C(F)(F)F)c3)ncc2N2CC[C@H]1C2 [Example 20, (8S)—N-cyclobutyl-2-(3-(trifluoromethyl)phenyl)-7,8-dihydro-5,8-methanopyrimido[4,5-b][1,4]diazepine-9(6H)-carboxamide]",A (EC1.5<1 μM),A (Fold activation ≥150%)
"Cc1ncc(-c2ccnc(NC(=O)N3c4nc(C(=O)N[C@H](C)C(F)(F)F)ncc4N4CCC[C@H]3C4)c2)o1 [Example 70, (9S)—N10-(4-(2-methyloxazol-5-yl)pyridin-2-yl)-N2-((R)-1,1,1-trifluoropropan-2-yl)-8,9-dihydro-6H-5,9-methanopyrimido[4,5-b][1,4]diazocine-2,10(7H)-dicarboxamide]",A (EC1.5<1 μM),A (Fold activation ≥150%)
"Cl.O=C(Nc1ccnc(OC[C@H](O)CO)c1)N1c2nc(-c3cccc(C(F)(F)F)c3)ncc2N2CC[C@H]1C2 [Example 34, (8S)—N-(2-((R)-2,3-dihydroxypropoxy)pyridin-4-yl)-2-(3-(trifluoromethyl)phenyl)-7,8-dihydro-5,8-methanopyrimido[4,5-b][1,4]diazepine-9(6H)-carboxamide hydrochloride]",A (EC1.5<1 μM),A (Fold activation ≥150%)
"O=C(NC1CC1)c1ncc2c(n1)N(C(=O)Nc1ccccn1)[C@H]1CCCN2C1 [Example 116, (9S)—N2-cyclopropyl-N10-(pyridin-2-yl)-8,9-dihydro-6H-5,9-methanopyrimido[4,5-b][1,4]diazocine-2,10(7H)-dicarboxamide]",C (EC1.5>25 μM),A (Fold activation ≥150%)

# Now from value to compound:
"TRP Activity (EC1.5, concentration of compound required to increase SIRT1 activity by 50% over control)",TRP MAX RESP (percent maximum fold activation relative to control),SMILES
B (EC1.5 1-25 μM),A (Fold activation ≥150%),"O=C(Nc1cnc(OC[C@H](O)CO)nc1)N1c2nc(-c3cccc(C(F)(F)F)c3)ncc2N2CC[C@H]1C2 [Example 49, (8S)—N-(2-((R)-2,3-dihydroxypropoxy)pyrimidin-5-yl)-2-(3-(trifluoromethyl)phenyl)-7,8-dihydro-5,8-methanopyrimido[4,5-b][1,4]diazepine-9(6H)-carboxamide]"
A (EC1.5<1 μM),A (Fold activation ≥150%),"Cc1nc(-c2cccc(C(F)(F)F)c2)nc2c1N1CC[C@@H](C1)N2C(=O)Nc1cncc(OC[C@H](O)CO)c1 [Example 45, (8S)—N-(5-((R)-2,3-dihydroxypropoxy)pyridin-3-yl)-4-methyl-2-(3-(trifluoromethyl)phenyl)-7,8-dihydro-5,8-methanopyrimido[4,5-b][1,4]diazepine-9(6H)-carboxamide]"
B (EC1.5 1-25 μM),A (Fold activation ≥150%),"O=C(Nc1cc(OC[C@H](O)CO)ncn1)N1c2nc(-c3cccc(C(F)(F)F)c3)ncc2N2CC[C@H]1C2 [Example 16, (8S)—N-(6-((R)-2,3-dihydroxypropoxy)pyrimidin-4-yl)-2-(3-(trifluoromethyl)phenyl)-7,8-dihydro-5,8-methanopyrimido[4,5-b][1,4]diazepine-9(6H)-carboxamide]"
A (EC1.5<1 μM),A (Fold activation ≥150%),"C[C@@H](NC(=O)c1ncc2c(n1)N(C(=O)Nc1cc(OC[C@H](O)CO)ccn1)[C@H]1CCCN2C1)C(F)(F)F [Example 64, (9S)—N10-(4-((R)-2,3-dihydroxypropoxy)pyridin-2-yl)-N2-((R)-1,1,1-trifluoropropan-2-yl)-8,9-dihydro-6H-5,9-methanopyrimido[4,5-b][1,4]diazocine-2,10(7H)-dicarboxamide]"
B (EC1.5 1-25 μM),A (Fold activation ≥150%),"Cc1nc(C(=O)N[C@H](C)C(F)(F)F)nc2c1N1CCC[C@@H](C1)N2C(=O)Nc1ccc(OC[C@@H](O)CO)nn1 [Example 74, (9S)—N10-(6-((S)-2,3-dihydroxypropoxy)pyridazin-3-yl)-4-methyl-N2-((R)-1,1,1-trifluoropropan-2-yl)-8,9-dihydro-6H-5,9-methanopyrimido[4,5-b][1,4]diazocine-2,10(7H)-dicarboxamide]"
